From ChEMBL document CHEMBL3886909, “7-hydroxy-spiropipiperidine indolinyl antagonists of P2Y1 receptor” (2016) come the findings set out here.

The Ki is the dissociation constant of the complex between target and ligand, obtained from inhibition or displacement. A high value points to lower affinity.

In one experiment the target is T1, P2Y purinoceptor 1 (Homo sapiens, UniProt P47900). As to the kind of experiment: Binding Assay: Binding reactions were performed in WGA FLASHPLATEs (PerkinElmer Life Sciences, Cat # SMP105A) in a volume of 200 uL containing 45 fmol of P2Y1 receptor (5 ug of total protein), 0.5 nM [33P] […] Reactions were allowed to proceed to completion at room temperature for 1 hour and then the aqueous solution aspirated.
T1 sequence (P47900 whole entry): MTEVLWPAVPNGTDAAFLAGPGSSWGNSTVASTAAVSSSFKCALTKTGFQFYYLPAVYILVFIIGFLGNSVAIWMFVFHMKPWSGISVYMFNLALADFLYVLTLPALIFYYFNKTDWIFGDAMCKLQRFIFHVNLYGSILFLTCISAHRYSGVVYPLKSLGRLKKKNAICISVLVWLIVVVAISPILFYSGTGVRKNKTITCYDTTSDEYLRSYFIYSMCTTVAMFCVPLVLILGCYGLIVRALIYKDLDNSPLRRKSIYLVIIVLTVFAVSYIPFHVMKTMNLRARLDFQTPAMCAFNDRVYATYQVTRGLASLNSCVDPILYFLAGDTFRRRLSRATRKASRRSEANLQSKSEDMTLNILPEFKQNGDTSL
`CC(C)(C)CN1CCC2(CC1)CN(c1ccccc1NC(=O)Nc1ccc(OC(F)(F)F)cc1)c1c(O)cc(F)cc12`: the Ki was determined as 9.1 nM.

In a further experiment the target is T1, P2Y purinoceptor 1. As to the kind of experiment: Scintillation Proximity Assay (SPA): A SPA membrane binding assay was used to identify inhibitors of [33P] […] Binding reactions were performed in 384-well OptiPlates (PerkinElmer Life Sciences, Cat #6007299) in a volume of 50 uL containing 15 fmol of P2Y1 receptor (1.7 ug of total protein), 0.3 nM [33P] […] Reactions were allowed to proceed to completion at room temperature for 1 hour followed by centrifugation of the plate for 5 min. About 40 uL of the aqueous soluttion was aspirated. Plates were sealed and the [33P].
For `CC(C)(C)CN1CCC2(CC1)CN(c1ccccc1NC(=O)Nc1nc3ccc(F)cc3s1)c1c(O)ccc(-c3nc4ccc(Cl)cc4s3)c12`, the inhibition constant (Ki) stood at 104 nM.
The same measure, in the same setting: with `CC(C)(C)CN1CCC2(CC1)CN(c1ccccc1NC(=O)Nc1ccc(OC(F)(F)F)cc1)c1c(O)ccc(-c3nc4cc(Cl)ccc4s3)c12` the figure was 137 nM; with `CC(C)(C)CN1CCC2(CC1)CN(c1ccccc1NC(=O)Nc1nc3ccc(Cl)nc3s1)c1c(O)ccc(-c3nc4cc(Cl)ccc4s3)c12`, 53.7 nM; with `CC(C)(C)CN1CCC2(CC1)CN(c1ccccc1NC(=O)Nc1csc(Cl)n1)c1c(O)ccc(-c3nc4cc(Cl)ccc4s3)c12`, 9.1 nM.
The same measure, in the same setting: to `CC(C)(C)CN1CCC2(CC1)CN(c1ccccc1NC(=O)Nc1ccc(OC(F)(F)F)cc1)c1c(O)ccc(-c3nc4ccc(Cl)cc4s3)c12` belongs 73.4 nM.
`CC(C)(C)CN1CCC2(CC1)CN(c1ccccc1NC(=O)Nc1nc3ccc(Cl)nc3s1)c1c(O)ccc(-c3nc4cc(C(F)(F)F)ccc4s3)c12`: affinity was put at a Ki of 24.6 nM. This Ki lies about 3-fold lower than the previous one.
Still for that read-out and setting: to `CC(C)(C)CN1CCC2(CC1)CN(c1ccccc1NC(=O)Nc1csc(Cl)n1)c1c(O)ccc(-c3nc4cccc(Cl)c4s3)c12` belongs 18.4 nM; to `CC(C)CN1CCC2(CC1)CN(c1ccccc1NC(=O)Nc1ccc(OC(F)(F)F)cc1)c1c(O)ccc(-c3nc4cc(Cl)ccc4s3)c12`, 9.6 nM.
`CC(C)(C)CN1CCC2(CC1)CN(c1ccccc1NC(=O)Nc1nc3ccc(Cl)cc3s1)c1c(O)cc(F)c(Cl)c12` had a Ki of 23.1 nM.
In turn, `CC(C)(C)CN1CCC2(CC1)CN(c1ccccc1NC(=O)Nc1csc(Cl)n1)c1c(O)cc(F)c(Cl)c12` came in with a Ki of 19 nM.
The same measure, in the same setting: with `CC(C)N1CCC2(CC1)CN(c1ccccc1NC(=O)Nc1ccc(OC(F)(F)F)cc1)c1c(O)ccc(-c3nc4cc(Cl)ccc4s3)c12` the figure was 24 nM; with `CC(C)(C)CN1CCC2(CC1)CN(c1ccccc1NC(=O)Nc1nc3ccc(F)cc3s1)c1c(O)ccc(-c3nc4cc(Cl)ccc4s3)c12`, 1.2 nM.
